This note sets out measurements from PMC9601927 (Foods, 2022).

The test system of data set [1] is sGLT1. Put plainly: siRNA-mediated knockdown of sGLT1 in Caco-2 cells (RT-PCR, Western blot). The data set is classed as cell-based. The conditions noted are these: 72 h post-transfection. As for the experimental part: (§1) To examine the effect of sGLT1 and GLUT2 on ANC transmembrane transport in more detail, the Caco-2 cells were transfected with siRNA targeted to sGLT1 and GLUT2 (sGLT1 siRNA-1, sGLT1 siRNA-2, sGLT1 siRNA-3, GLUT2 siRNA-1, GLUT2 siRNA-2, and GLUT2 siRNA-3) to knockdown their expression on day 18 after differentiation. The specific experimental operation was carried out according to the literature. NC siRNA was used as a negative control. The siRNA oligos and all transfection reagents were provided by Hippobio (Huzhou, China). Western blotting and real-time PCR (RT-PCR) analyses were performed to check the sGLT1 and GLUT2 expression levels after 72 h post-transfection.
(§2) According to the manufacturer’s instructions, the MiniBEST Universal RNA Extraction Kit was used to isolate the total RNA from Caco-2 cells. Table 2 lists the three specific primers. GAPDH served as an internal control. […] The 2^−ΔΔCt method was adopted to calculate the relative quantification of the target gene.
(§3) Firstly, the cells were washed twice with 1 mL of cold PBS and then lysed in 100 μL of ice-cold RIPA lysis buffer. […] Finally, the expressions of sGLT1 and GLUT2 were detected using a Western blot assay.
On the technique in general: A western blot detects proteins with antibodies after separation by electrophoresis.

Data set [2] deals with GLUT2. Put plainly: siRNA-mediated knockdown of GLUT2 in Caco-2 cells (RT-PCR, Western blot). The data set is classed as cell-based. The conditions noted are these: 72 h post-transfection. As for the experimental part: as §1, §2, §3

As for “sGLT1 siRNA-3: siRNA targeted to sGLT1: GGAGCGTATTGACCTGGATTT ATCCAGGTCAATACGCTCCTT (GGAGCGTATTGACCTGGATTTATCCAGGTCAATACGCTCCTT; chemistry not given here)”, in data set [1], the “expression of sGLT1 (Western blot) after siRNA transfection” value is “significantly reduced” and the “reduction of sGLT1 mRNA levels (RT-PCR)” value is reported as 85%.

Consider “GLUT2 siRNA-2: siRNA targeted to GLUT2: CGGGCATTCTTATTAGTCATT TGACTAATAAGAATGCCCGTT (CGGGCATTCTTATTAGTCATTTGACTAATAAGAATGCCCGTT; chemistry not given here)”, for which, in data set [2], the “reduction of GLUT2 mRNA levels (RT-PCR)” value came to 75% and the “silencing of GLUT2 (Western blot) after siRNA transfection” value was “most effective segment”.
